Results on 5 compounds are retold here after patent US20110288052A1, “NOVEL COMPOUNDS, PHARMACEUTICAL COMPOSITIONS CONTAINING SAME, AND METHODS OF USE FOR SAME” (priority 2008, published 2011).

Molecules are shown by their SMILES. Values after ≈ are worked out from the molar mass of the structure shown. Where two headings read alike, the source gives them in different places.

Data set [1] in a line: Solubility problem noted during the assays. The format is physicochemical. The note with it: read-out: Sol Prob (solubility problem at concentration).
Another data set relates to OVCAR3 cells. Description: XTT cytotoxicity assay, OVCAR3 (OV). The data set is classed as cell-based. The note with it: Homo sapiens. How it is done: (§1) XTT Cytotoxicity Assay The XTT assay is a non-radioactive alternative for the [^51Cr] release cytotoxicity assay. XTT is a tetrazolium salt that is reduced to a formazan dye only by metabolically active, viable cells. The reduction of XTT is measured spectrophotometrically as OD490-OD650. To measure the cytotoxicity of specific compounds against cancer cells, 9×10^3 MCF-7 human breast cancer cells (shown in the tables as “(M)”), obtained from the American Type Culture Collection are plated per well in 96 well plates in DMEM medium with 10% fetal bovine serum, insulin, penicillin, and streptomycin. Following overnight culture at 37° C. and 5% CO2, the compounds to be tested, dissolved in DMSO, are added to the wells in 1 μl volume at the following concentrations: 80, 40, 20, 10, 5, 2.5, 1.25, and 0.625 μg/ml in triplicate. Additional concentrations are tested if required. 1 μl of DMSO is added to triplicate wells are the vehicle control. C75 is run at 40, 20, […], and 5 μg/ml in triplicate as positive controls. After 72 hours of incubation, cells are incubated for 4 hours with the XTT reagent as per manufacturer's instructions (Cell Proliferation Kit II (XTT) Roche). Plates are read at OD490 and OD650 on a Molecular Devices SpectraMax Plus Spectrophotometer. Three wells containing the XTT reagent without cells serve as the plate blank. XTT data are reported as OD490-OD650. Averages and standard error of the mean are computed using SOFTmax Pro software (Molecular Dynamics). The IC50 for the compounds is defined as the concentration of drug leading to a 50% reduction in OD490-OD650 compared to controls. The OD490-OD650 are computed by the SOFTmax PRO software (Molecular Devices) for each compound concentration. IC50 is calculated by linear regression, plotting the FAS activity as percent of control versus drug concentrations. Linear regression, best-fit line, r^2, and 95% confidence intervals are determined using Prism Version 3.0 (Graph Pad Software). The test was also run against OVCAR3 cells (“OV”), and HCT116 cells (“H”).

Data set [2] concerns MCF-7 human breast cancer cells (fatty acid oxidation pathway activity). Description: Fatty acid oxidation ([14C]palmitate to acid soluble products). The data set is classed as cell-based. The protocol:
Measurement of Fatty Acid Oxidation and Determination of SC150 of Compounds This assay measures the degradation of [^14C]palmitate into acid soluble products and is a measure of fatty acid oxidation pathway activity in vitro. It is utilized to measure fatty acid oxidation in vitro. MCF-7 human breast cancer cells cultured as above, are plated at 2.5×10^5 cells per well in 24-well plates. Following overnight incubation, the compounds to be tested, solubilized in DMSO, are added at […], 0.39, 1.56, 6.25, 25, and 100 μg/ml in triplicate, with lower concentrations tested if necessary. DMSO is added to triplicate wells for a vehicle control. C75 is run at 5 and 10 μg/ml in triplicate as positive controls. After 1 hour of incubation, medium is removed 100 uM of [^14C] palmitate in cyclodextran and 200 uM carnitine in serum free medium (250 μl volume) is added to each well. After 30 minutes of additional incubation, the reaction is stopped by addition of 2.6N HClO4. Contents of each well are transferred to 1.5 ml Eppendorf tubes and 4N KOH is added. The tubes are incubated for 30 minutes at 60° C. 1 M NaAcetate and 3N H2SO4 is added to each tube and vortexed. The tubes are centrifuged at 1000 rpm for 5 minutes at RT. 250 μl of the supernatant is transferred to a 2 ml eppendorf tube. To each tube is added: 938 μl of chloroform:methanol (1:1), 468 μl chloroform and 281 μl of deionized water. The tubes are vortexed and centrifuged at 1000 rpm for 5 minutes at RT. 750 μl of the upper phase is transferred into a scintillation vial 5 ml of scintillant is added and vials are counted for 1 minute for ^14C. The Beckman Scintillation counter calculates the average cpm values for triplicates. The SC150 for the compounds is defined as the concentration of drug leading to a 150% increase in production of acid soluble products of [^14C] palmitate as compared to untreated controls. This is determined by plotting the average cpm for each inhibitor concentration tested, performing linear regression and computing the best-fit line, r^2 values, and 95% confidence intervals. The average cpm values are computed by the Beckman scintillation counter (Model LS6500) for each compound concentration. Computation of linear regression, best-fit line, r^2, and 95% confidence intervals are calculated using Prism Version 3.0 (Graph Pad Software). If a compound fails to achieve this 150% threshold it is considered negative. The maximum value achieved is also reported (FAO Max).

For data set [3], the system named is MCF-7 human breast cancer cells. Description: XTT cytotoxicity assay, MCF-7 (M). The data set is classed as cell-based. The note with it: MCF7, MCF-7, 72 hours. How it is done:
XTT Cytotoxicity Assay The XTT assay is a non-radioactive alternative for the [^51Cr] release cytotoxicity assay. XTT is a tetrazolium salt that is reduced to a formazan dye only by metabolically active, viable cells. The reduction of XTT is measured spectrophotometrically as OD490-OD650. To measure the cytotoxicity of specific compounds against cancer cells, 9×10^3 MCF-7 human breast cancer cells (shown in the tables as “(M)”), obtained from the American Type Culture Collection are plated per well in 96 well plates in DMEM medium with 10% fetal bovine serum, insulin, penicillin, and streptomycin. Following overnight culture at 37° C. and 5% CO2, the compounds to be tested, dissolved in DMSO, are added to the wells in 1 μl volume at the following concentrations: 80, 40, 20, 10, 5, 2.5, 1.25, and 0.625 μg/ml in triplicate. Additional concentrations are tested if required. 1 μl of DMSO is added to triplicate wells are the vehicle control. C75 is run at 40, 20, […], and 5 μg/ml in triplicate as positive controls. After 72 hours of incubation, cells are incubated for 4 hours with the XTT reagent as per manufacturer's instructions (Cell Proliferation Kit II (XTT) Roche). Plates are read at OD490 and OD650 on a Molecular Devices SpectraMax Plus Spectrophotometer. Three wells containing the XTT reagent without cells serve as the plate blank. XTT data are reported as OD490-OD650. Averages and standard error of the mean are computed using SOFTmax Pro software (Molecular Dynamics). The IC50 for the compounds is defined as the concentration of drug leading to a 50% reduction in OD490-OD650 compared to controls. The OD490-OD650 are computed by the SOFTmax PRO software (Molecular Devices) for each compound concentration. IC50 is calculated by linear regression, plotting the FAS activity as percent of control versus drug concentrations. Linear regression, best-fit line, r^2, and 95% confidence intervals are determined using Prism Version 3.0 (Graph Pad Software).

The next data set is described as follows: Weight loss screen. The data set is classed as in vivo, Balb/C mice. The note with it: 60 mg/ml (so in the source), day 1. The protocol:
Weight Loss Screen Balb/C mice (Jackson Labs) are utilized for the initial weight loss screening. Animals are housed in temperature and 12 hour day/night cycle rooms and fed mouse chow and water ad lib. Three mice are utilized for each compound tested with vehicle controls in triplicate per experiment. For the experiments, mice are housed separately for each compound tested three mice to a cage. Compounds are diluted in DMSO at 10 mg/ml and mice are injected intraperitoneally with 60 mg/kg in approximately 100 μl of DMSO or with vehicle alone. Mice are observed and weighed daily; average weights and standard errors are computed with Excel (Microsoft). The experiment continues until treated animals reach their pretreatment weights.

In a further data set the test system is HCT116 cells. Description: XTT cytotoxicity assay, HCT116 (H). The data set is classed as cell-based. The note with it: Homo sapiens, HCT-116. How it is done: as §1
Background: Tetrazolium assays rely on reduction of a dye to a coloured formazan, in cell work by metabolically active cells.

The target of the next data set is viral HIV protease (Human immunodeficiency virus type 1 group M subtype B, UniProt P04585). The note with it: cited from earlier work.
The test system of a further data set is Vero cells. The note with it: cited from earlier work.
Another data set deals with Raji cells. The note with it: cited from earlier work.
The subject of another data set is Hela cells. The note with it: cited from earlier work.
Data set [4] has as its target rat liver acyl-CoA synthetase. The note with it: read-out: 50% inhibition of rat liver acyl-CoA synthetase (converted); cited from earlier work.
Data set [5] concerns MCF-7 human breast cancer cells (fatty acid synthesis pathway activity). Description: [14C]acetate incorporation into total lipids. The note with it: MCF7, [14C]acetate incorporation into lipids. The format is cell-based. How it is done: Measurement of [^14C]acetate Incorporation into Total Lipids and Determination of IC50 of Compounds. This assay measures the incorporation of [^14C]acetate into total lipids and is a measure of fatty acid synthesis pathway activity in vitro. It is utilized to measure inhibition of fatty acid synthesis in vitro.
MCF-7 human breast cancer cells cultured as above, are plated at 5×10^4 cells per well in 24-well plates. Following overnight incubation, the compounds to be tested, solubilized in DMSO, are added at 5, 10, and 20 μg/ml in triplicate, with lower concentrations tested if necessary. DMSO is added to triplicate wells for a vehicle control. C75 is run at 5 and 10 μg/ml in triplicate as positive controls. After 4 hours of incubation, 0.25 μCi of [^14C]acetate (10 μl volume) is added to each well.
After 2 hours of additional incubation, medium is aspirated from the wells and 800 μl of chloroform:methanol (2:1) and 700 μl of 4 mM MgCl2 is added to each well. Contents of each well are transferred to 1.5 Eppendorf tubes, and spun at full-speed for 2 minutes in a high-speed Eppendorf Microcentrifuge 5415D. After removal of the aqueous (upper) layer, an additional 700 μl of chloroform:methanol (2:1) and 500 μl of 4 mM MgCl2 are added to each tube and then centrifuged for 1 minutes as above. The aqueous layer is removed with a Pasteur pipette and discarded. An additional 400 μl of chloroform:methanol (2:1) and 200 μl of 4 mM MgCl2 are added to each tube, then centrifuged and aqueous layer is discarded. The lower (organic) phase is transferred into a scintillation vial and dried at 40° C. under N2 gas. Once dried, 3 ml of scintillant (APB #NBC5104) is added and vials are counted for ^14C. The Beckman Scintillation counter calculates the average cpm values for triplicates.
The IC50 for the compounds is defined as the concentration of drug leading to a 50% reduction in [^14C]acetate incorporation into lipids compared to controls. This is determined by plotting the average cpm for each inhibitor concentration tested, performing linear regression and computing the best-fit line, r^2 values, and 95% confidence intervals. The average cpm values are computed by the Beckman scintillation counter (Model LS6500) for each compound concentration. Computation of linear regression, best-fit line, r^2, and 95% confidence intervals are calculated using Prism Version 3.0 (Graph Pad Software).

`CCCCCCCCC1(C)SC(=O)C=C1OCC(=O)Nc1ccc(F)cc1` (stereo not shown): the solubility in [1] (noted under the 14C column, unit inferred) turned out to be 80 µg/mL (≈ 203 µM). Also, the IC50 stood at 11.1 µg/mL (≈ 28.2 µM) in the data set with OVCAR3 cells (OVCAR-3, unit given as ml); 6.5 µg/mL (≈ 16.5 µM) in [3]; 5.6 µg/mL (≈ 14.2 µM) in the data set on HCT116 cells. For the same compound, the Emax at 1.56 µg/mL in data set [2] (Homo sapiens, MCF7, at 1.56 μg/ml, read-out: FAO Max) is 106%. In data set [2] (concentration leading to 150% of control acid soluble products, Neg = threshold not reached), the “FAO SC 150” value was “Neg”. Also, the “Weight Loss” value in “Weight loss screen” is on record as 60 mg/ml: 2.4% (day 1).
For `C/C=C/C/C=C/CCC(=O)[C@H]1O[C@H]1C(N)=O` [cerulenin, (2S,3R)-2,3-epoxy-4-oxo-7,10 dodecadienoyl amide], the “concentration at which viral HIV protease is inhibited” value on viral HIV protease was 5 mg/mL.
As for `CCCC=CCC=CC=CC=NN=NO` [Triacsin C, 1-hydroxy-3-(E,E,E-2′,4′,7′-undecatrienylidine) triazene], in the data set with Vero cells, the “growth inhibition of Vero cells” value was “inhibit growth”. Also, in the data set on Raji cells, the “growth inhibition in Raji cells” value is reported as “growth inhibition”. In addition, the “growth inhibition of Hela cells” value in the data set with Hela cells is given as “inhibit growth”. For the same compound, the IC50 in [4] was 8.7 µM.
With `CCCCCCCCC1(C)SC(=O)C=C1OCC(=O)Nc1ccc(C#N)cc1` (stereo not shown), in data set [1], the solubility is 80 µg/mL (≈ 200 µM). The IC50 with OVCAR3 cells (OVCAR-3) is 6.6 µg/mL (≈ 16.5 µM); in data set [3], 3.8 µg/mL (≈ 9.49 µM); in data set [5] it was above 80 µg/mL; in the data set on HCT116 cells, 5.3 µg/mL (≈ 13.2 µM).
On the same counts, the results for `CCCCCCCCC1(C)SC(=O)C=C1OCC(=O)Nc1ccc(C(N)=O)cc1` (stereo not shown) are 80 µg/mL (≈ 191 µM), 21.5 µg/mL (≈ 51.4 µM), 10.2 µg/mL (≈ 24.4 µM), 12.3 µg/mL (≈ 29.4 µM) and 10.6 µg/mL (≈ 25.3 µM).
